We go through twelve compounds from patent US4868181A, “1,4-dihydropyridine derivatives with calcium agonist and alpha1 -antagonist activity” (E. I. Du Pont de Nemours and Company, priority 1987, dated 1989).

A value given as a limit tells only on which side of the number the result lay.

One data set has as its system guinea pig left atria. In words: Positive inotropic effect in guinea pig left atria. The following applies: 37°; for EC50: left atria paced at 2Hz, cumulative addition to maximum 10^-4, read-out: EC50 (concentration that increases DT by 50% above the control DT); for Intrinsic Activity (ratio of the maximum effect of the test compound to that of Bay K 8644): relative to Bay K 8644, left atria paced at 2Hz.

A further data set concerns calcium ions influx. The following applies: cited from earlier work.
The test system of data set [1] is coronary vasoconstriction. The following applies: cited from earlier work.
The target of the next data set is T1, Ca^2 + channels (Rattus norvegicus, UniProt P22002).
T1 construct: rat cardiac microsomes (source of Ca^2 + channels); from tissue; host or cells: rat cardiac microsomes
T1 sequence (P22002 whole entry, other chains not shown): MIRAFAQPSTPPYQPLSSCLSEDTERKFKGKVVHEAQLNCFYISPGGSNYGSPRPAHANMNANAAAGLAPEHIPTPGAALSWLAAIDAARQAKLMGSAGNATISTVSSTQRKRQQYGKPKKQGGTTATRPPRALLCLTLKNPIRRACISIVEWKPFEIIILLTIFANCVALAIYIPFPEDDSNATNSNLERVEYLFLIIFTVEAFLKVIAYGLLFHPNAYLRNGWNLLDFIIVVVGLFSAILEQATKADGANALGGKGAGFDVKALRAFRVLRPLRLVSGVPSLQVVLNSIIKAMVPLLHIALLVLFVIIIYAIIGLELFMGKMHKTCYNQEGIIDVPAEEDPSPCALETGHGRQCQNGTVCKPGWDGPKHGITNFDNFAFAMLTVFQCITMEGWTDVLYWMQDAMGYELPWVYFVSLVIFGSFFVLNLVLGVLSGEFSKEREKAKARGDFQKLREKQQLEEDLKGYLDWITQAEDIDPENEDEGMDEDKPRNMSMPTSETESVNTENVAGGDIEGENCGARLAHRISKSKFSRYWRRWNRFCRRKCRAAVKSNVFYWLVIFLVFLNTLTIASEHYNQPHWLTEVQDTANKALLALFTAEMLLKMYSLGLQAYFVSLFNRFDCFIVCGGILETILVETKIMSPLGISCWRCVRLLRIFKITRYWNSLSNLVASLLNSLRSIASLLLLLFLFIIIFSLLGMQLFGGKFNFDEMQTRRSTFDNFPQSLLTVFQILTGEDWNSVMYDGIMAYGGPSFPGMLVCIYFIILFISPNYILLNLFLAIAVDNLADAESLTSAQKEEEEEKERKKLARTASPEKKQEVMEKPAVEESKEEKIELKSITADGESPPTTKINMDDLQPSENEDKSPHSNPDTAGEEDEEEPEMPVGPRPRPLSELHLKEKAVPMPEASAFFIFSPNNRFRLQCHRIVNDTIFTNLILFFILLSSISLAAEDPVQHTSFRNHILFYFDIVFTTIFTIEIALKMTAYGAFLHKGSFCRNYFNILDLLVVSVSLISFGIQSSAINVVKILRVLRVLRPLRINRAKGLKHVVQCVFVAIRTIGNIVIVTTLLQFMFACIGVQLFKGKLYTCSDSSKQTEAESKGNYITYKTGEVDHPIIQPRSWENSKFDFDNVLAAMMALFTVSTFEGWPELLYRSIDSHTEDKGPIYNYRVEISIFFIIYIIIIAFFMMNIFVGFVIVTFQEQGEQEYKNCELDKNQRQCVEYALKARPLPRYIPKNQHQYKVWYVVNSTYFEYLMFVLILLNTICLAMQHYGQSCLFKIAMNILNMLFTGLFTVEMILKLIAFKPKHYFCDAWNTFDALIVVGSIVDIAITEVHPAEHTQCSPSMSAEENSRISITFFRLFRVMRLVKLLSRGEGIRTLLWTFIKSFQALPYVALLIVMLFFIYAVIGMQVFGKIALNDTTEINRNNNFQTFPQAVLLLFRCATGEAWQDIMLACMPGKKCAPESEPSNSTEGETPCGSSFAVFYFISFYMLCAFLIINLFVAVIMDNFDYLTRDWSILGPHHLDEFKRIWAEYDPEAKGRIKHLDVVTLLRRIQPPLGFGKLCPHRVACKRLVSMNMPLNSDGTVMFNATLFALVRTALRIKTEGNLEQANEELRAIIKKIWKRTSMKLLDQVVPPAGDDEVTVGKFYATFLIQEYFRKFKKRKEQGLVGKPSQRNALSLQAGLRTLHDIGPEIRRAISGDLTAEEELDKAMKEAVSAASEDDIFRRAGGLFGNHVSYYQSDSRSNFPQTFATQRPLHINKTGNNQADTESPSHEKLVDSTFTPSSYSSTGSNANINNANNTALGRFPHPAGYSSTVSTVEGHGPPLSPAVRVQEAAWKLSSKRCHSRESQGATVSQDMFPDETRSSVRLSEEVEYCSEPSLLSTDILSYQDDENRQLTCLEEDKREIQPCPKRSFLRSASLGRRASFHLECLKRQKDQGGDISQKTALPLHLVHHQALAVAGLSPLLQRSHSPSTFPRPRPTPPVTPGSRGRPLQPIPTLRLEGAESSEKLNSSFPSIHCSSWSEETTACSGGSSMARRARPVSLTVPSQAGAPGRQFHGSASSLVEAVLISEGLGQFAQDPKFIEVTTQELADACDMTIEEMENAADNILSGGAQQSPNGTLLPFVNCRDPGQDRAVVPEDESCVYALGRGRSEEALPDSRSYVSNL
T1 sequence (P54290 25-944 partner limits assumed, other chains not shown): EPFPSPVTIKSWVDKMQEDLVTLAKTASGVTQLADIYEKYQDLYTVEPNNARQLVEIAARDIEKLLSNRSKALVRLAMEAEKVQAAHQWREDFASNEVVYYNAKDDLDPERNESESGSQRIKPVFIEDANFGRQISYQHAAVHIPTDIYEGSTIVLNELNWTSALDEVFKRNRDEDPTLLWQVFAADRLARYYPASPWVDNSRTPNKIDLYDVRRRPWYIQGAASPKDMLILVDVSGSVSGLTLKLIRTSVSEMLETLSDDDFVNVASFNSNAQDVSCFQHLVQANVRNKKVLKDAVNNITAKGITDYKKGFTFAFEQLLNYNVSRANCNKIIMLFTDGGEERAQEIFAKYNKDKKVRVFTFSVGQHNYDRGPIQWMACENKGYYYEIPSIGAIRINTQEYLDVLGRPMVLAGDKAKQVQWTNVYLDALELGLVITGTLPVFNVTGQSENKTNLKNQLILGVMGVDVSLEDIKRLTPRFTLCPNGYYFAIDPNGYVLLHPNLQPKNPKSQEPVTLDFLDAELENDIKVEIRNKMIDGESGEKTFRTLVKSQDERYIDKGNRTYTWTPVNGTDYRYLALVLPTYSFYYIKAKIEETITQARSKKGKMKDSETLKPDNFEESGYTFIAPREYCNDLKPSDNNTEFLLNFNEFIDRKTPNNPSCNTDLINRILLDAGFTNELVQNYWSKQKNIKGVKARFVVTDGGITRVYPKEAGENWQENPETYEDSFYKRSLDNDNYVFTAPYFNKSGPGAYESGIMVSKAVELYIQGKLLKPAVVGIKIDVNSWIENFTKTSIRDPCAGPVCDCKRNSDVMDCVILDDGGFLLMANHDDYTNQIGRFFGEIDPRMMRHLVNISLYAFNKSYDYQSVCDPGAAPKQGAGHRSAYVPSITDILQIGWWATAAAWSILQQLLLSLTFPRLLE
T1 sequence (P54290 945-1091 partner limits assumed, other chains not shown): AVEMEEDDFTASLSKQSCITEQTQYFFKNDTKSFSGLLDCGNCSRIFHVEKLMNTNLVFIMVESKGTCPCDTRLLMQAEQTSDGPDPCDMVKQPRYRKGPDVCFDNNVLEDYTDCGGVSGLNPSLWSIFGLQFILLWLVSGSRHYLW
The experiment in a line: [^3 H]-Nitrendipine binding assay (affinity for calcium channels). The following applies: rat cardiac microsomes, 0.5 nM [^3 H]-nitrendipine, 60 minutes at 25°.

In a further data set the target is alpha1 -adrenoceptors. In words: [^3 H]-prazosin binding assay (affinity for alpha1-adrenoceptors). The following applies: rat brain membranes, 0.2 nM [^3 H]-prazosin, 60 minutes at 25°.

Consider `COC(=O)C1=C(C)NC(C)=C([N+](=O)[O-])C1c1ccccc1C(F)(F)F` (stereo not shown) [Bay K8644], for which, in the data set on guinea pig left atria, the EC50 amounted to 150 nM and the “Intrinsic Activity (ratio of the maximum effect of the test compound to that of Bay K 8644)” value is 100%. Further, the “calcium ion influx and resulting effects” value with calcium ions influx was “promote an influx of calcium ions, therefore producing positive inotropic and vasoconstrictor effects”. For the same compound, the “potency as a calcium agonist relative to CGP28392” value in the data set with calcium ions influx (compared with CGP28392) is listed as “more than 10 times”. Moreover, the toxicity entry in data set [1] was “toxic because it causes coronary vasoconstriction”.
In the case of `CCOC(=O)C1=C(C)NC2=C(C(=O)OC2)C1c1ccccc1OC(F)F` (stereo not shown) [CGP28392], the “calcium ion influx and resulting effects” value with calcium ions influx was “promote an influx of calcium ions, therefore producing positive inotropic and vasoconstrictor effects”.
As a reminder, the IC50 is the concentration needed to halve the response being measured. Consider `COC(=O)C1=C(C)NC(C)=C([N+](=O)[O-])C1c1ccccc1OCCCCN1CCN(c2ccccn2)CC1` (stereo not shown) [Example 116], for which, in the data set with guinea pig left atria, the EC50 is > 100000 nM and the “Intrinsic Activity (ratio of the maximum effect of the test compound to that of Bay K 8644)” value came to 0%. On Ca^2 + channels, the IC50 worked out at 580 nM. For the same compound, at alpha1 -adrenoceptors, the IC50 came to 500 nM.
Turning to `CCOC(=O)C1=C(C)NC(C)=C([N+](=O)[O-])C1c1cccc(OCCCN2CCN(c3ccccc3OC)CC2)c1` (stereo not shown) [Example 117], in the data set with guinea pig left atria, the EC50 is > 100000 nM and the “Intrinsic Activity (ratio of the maximum effect of the test compound to that of Bay K 8644)” value turned out to be 0%. Besides, the IC50 on Ca^2 + channels worked out at 10000 nM. On alpha1 -adrenoceptors, this compound had an IC50 of 280 nM.
Turning to `CCOC(=O)C1=C(C)NC(C)=C([N+](=O)[O-])C1c1ccccc1OCCCCN1CCN(c2ccccc2OC)CC1` (stereo not shown) [Example 120], the EC50 in the data set on guinea pig left atria came out at 30000 nM. In addition, the “Intrinsic Activity (ratio of the maximum effect of the test compound to that of Bay K 8644)” value in the data set on guinea pig left atria is given as 50%. The values for the IC50 at Ca^2 + channels and at alpha1 -adrenoceptors were 470 nM and 440 nM, respectively.
Take `COC(=O)C1=C(C)NC(C)=C([N+](=O)[O-])C1c1cccc(OCCCN2CCN(C(c3ccc(F)cc3)c3ccc(F)cc3)CC2)c1` (stereo not shown) [Example 123]: in the data set with guinea pig left atria, the EC50 is > 100000 nM and the “Intrinsic Activity (ratio of the maximum effect of the test compound to that of Bay K 8644)” value stood at 0%. At Ca^2 + channels, the half-inhibitory concentration (IC50) is 1700 nM. Also, the IC50 on alpha1 -adrenoceptors worked out at 4500 nM.
Take `COC(=O)C1=C(C)NC(C)=C([N+](=O)[O-])C1c1cccc(OCC=CCN2CCN(c3ccccc3OC)CC2)c1` (stereo not shown) [Example 125]: in the data set with guinea pig left atria, the EC50 is > 100000 nM and the “Intrinsic Activity (ratio of the maximum effect of the test compound to that of Bay K 8644)” value is recorded as 0%. On Ca^2 + channels, the IC50 came out at 1400 nM. Besides, the IC50 on alpha1 -adrenoceptors was determined as 440 nM.
`COC(=O)C1=C(C)NC(C)=C([N+](=O)[O-])C1c1ccccc1OCCCCCCN1CCN(c2ccccc2OC)CC1` (stereo not shown) [Example 129]: the EC50 in the data set with guinea pig left atria is 2000 nM. The “Intrinsic Activity (ratio of the maximum effect of the test compound to that of Bay K 8644)” value in the data set on guinea pig left atria is given as 15%. In addition, the IC50 is 360 nM at Ca^2 + channels and 380 nM on alpha1 -adrenoceptors.
For `COC(=O)C1=C(C)NC(C)=C([N+](=O)[O-])C1c1cccc(OCCCCCCN2CCN(c3ccccc3OC)CC2)c1` (stereo not shown) [Example 130], in the data set with guinea pig left atria, the EC50 came to 3000 nM. Also, the “Intrinsic Activity (ratio of the maximum effect of the test compound to that of Bay K 8644)” value in the data set on guinea pig left atria was found to be 25%. Besides, the figures for the IC50 on Ca^2 + channels and at alpha1 -adrenoceptors were 380 nM and 330 nM, respectively.
Consider `COC(=O)C1=C(C)NC(C)=C([N+](=O)[O-])C1c1cccc([N+](=O)[O-])c1OCCCN1CCN(c2ccccc2OC)CC1` (stereo not shown) [Example 139], for which the EC50 in the data set with guinea pig left atria is > 100000 nM. Further, the “Intrinsic Activity (ratio of the maximum effect of the test compound to that of Bay K 8644)” value with guinea pig left atria is reported as 0%. The IC50 was determined as 120 nM at Ca^2 + channels and 140 nM on alpha1 -adrenoceptors.
As for `COC(=O)C1=C(C)NC(C)=C([N+](=O)[O-])C1c1cccc([N+](=O)[O-])c1OCCCCCN1CCN(c2ccccc2OC)CC1` (stereo not shown) [Example 140], in the data set on guinea pig left atria, the EC50 was > 100000 nM and the “Intrinsic Activity (ratio of the maximum effect of the test compound to that of Bay K 8644)” value is 0%. Also, the IC50 at Ca^2 + channels came to 160 nM. The compound further returned an IC50 at alpha1 -adrenoceptors of 180 nM.
Consider `COC(=O)C1=C(C)NC(C)=C([N+](=O)[O-])C1c1cc(Br)ccc1OCCCCN1CCN(c2ccccc2OC)CC1` (stereo not shown) [Example 142], for which, in the data set with guinea pig left atria, the EC50 was > 100000 nM. Further, the “Intrinsic Activity (ratio of the maximum effect of the test compound to that of Bay K 8644)” value in the data set on guinea pig left atria was 0%. Also, the IC50 was found to be 180 nM on Ca^2 + channels and 250 nM at alpha1 -adrenoceptors.
